The values below come from US10837909B2, “Super-resolution fluorescent imaging probe” (The University of Tokyo, priority 2015, dated 2020).

Series [1] is described as follows: Laser flash photolysis: nucleophilic addition reaction rate constant and time constant with glutathione. It counts as physicochemical. The settings on record: pH 7.4, 10 mM sodium phosphate buffer, 295 K. How it is done: Change over time of transient absorption of the probe compounds of the present invention at various glutathione concentrations was measured using laser flash photolysis, and a nucleophilic addition reaction rate constant k and a nucleophilic addition reaction rime constant T in the nucleophilic addition-dissociation equilibrium reaction between glutathione and the probe compounds of the present invention were calculated. The solution conditions were […] aqueous solution and pH 7.4 (10 mM sodium phosphate buffer). A measurement condition was 295 K and a light source was a 10 mJ/pulse XeCl excimer laser ([…]).

Series [2] in a line: Measurement of the fluorescence quantum yield. The settings on record: 1 μM probe, 1% DMSO aqueous solution, pH 7.4 (200 mM sodium phosphate buffer). It counts as physicochemical. How it is done: Fluorescence quantum yield of the probe compounds according to the present invention was measured. The solution conditions were 1 μM probe compound, 1% DMSO aqueous solution, and pH 7.4 (200 mM sodium phosphate buffer).

Each structure is given as a SMILES string.

In the case of `C[Si]1(C)C2=CC(=N)C=CC2=C(c2ccccc2)c2ccc(N)cc21` [Compound 2], the “k (nucleophilic addition reaction rate constant)” value was determined as 1.21 s⁻¹ in series [1] (glutathione 0.5 mM), 2.05 s⁻¹ in series [1] (glutathione 1 mM), 11.0 s⁻¹ in series [1] (glutathione 5 mM) and 25.0 s⁻¹ in series [1] (glutathione 10 mM). For the same compound, the “τ (nucleophilic addition reaction time constant)” value in series [1] (glutathione 0.5 mM) was 823 ms; in series [1] (glutathione 1 mM) it was 487 ms; in series [1] (glutathione 5 mM), 90.7 ms; in series [1] (glutathione 10 mM), 40.1 ms.
For `CN(C)c1ccc2c(c1)[Si](C)(C)C1=CC(=[N+](C)C)C=CC1=C2` [Compound 5], the “k (nucleophilic addition reaction rate constant)” value was 14.3 s⁻¹ in series [1] (glutathione 0.1 mM); 95.8 s⁻¹ in series [1] (glutathione 0.5 mM); 176.2 s⁻¹ in series [1] (glutathione 1 mM); 976 s⁻¹ in series [1] (glutathione 5 mM); 2290 s⁻¹ in series [1] (glutathione 10 mM). The “τ (nucleophilic addition reaction time constant)” value turned out to be 69.9 ms in series [1] (glutathione 0.1 mM); 10.4 ms in series [1] (glutathione 0.5 mM); 5.67 ms in series [1] (glutathione 1 mM); 1.02 ms in series [1] (glutathione 5 mM); 0.436 ms in series [1] (glutathione 10 mM). Besides, the Fluorescence quantum yield in series [2] came out at 0.39.
As to `CN(C)c1ccc2c(c1)[Si](C)(C)C1=C/C(=[N+](\C)CCCC(=O)O)C=CC1=C2` [Compound 12], the “k (nucleophilic addition reaction rate constant)” value was determined as 7.49 s⁻¹ in series [1] (glutathione 0.1 mM); 42.8 s⁻¹ in series [1] (glutathione 0.5 mM); 75.6 s⁻¹ in series [1] (glutathione 1 mM); 444 s⁻¹ in series [1] (glutathione 5 mM); 1080 s⁻¹ in series [1] (glutathione 10 mM). The “τ (nucleophilic addition reaction time constant)” value is 134 ms in series [1] (glutathione 0.1 mM); 23.4 ms in series [1] (glutathione 0.5 mM); 13.2 ms in series [1] (glutathione 1 mM); 2.25 ms in series [1] (glutathione 5 mM); 0.93 ms in series [1] (glutathione 10 mM). Moreover, the Fluorescence quantum yield in series [2] is recorded as 0.46.
Consider `CN(C)c1ccc2c(c1)[Si](C)(C)C1=C/C(=[N+](\C)CCCC(=O)NCc3ccc(COc4nc(N)nc5[nH]cnc45)cc3)C=CC1=C2` [Compound 14], for which the Fluorescence quantum yield in series [2] turned out to be 0.27.
In series [2], `CN(C)c1ccc2c(c1)[Si](C)(C)C1=C/C(=[N+](\C)CCCC(=O)NCCOCCOCCCCCCCl)C=CC1=C2` [Compound 16] returned a Fluorescence quantum yield of 0.49.
`CN(C)c1ccc2c(c1)[Si](C)(C)C1=C/C(=[N+](\C)CCCC(=O)ON3C(=O)CCC3=O)C=CC1=C2` [Compound 17]: in series [2], the Fluorescence quantum yield is 0.46.
With `CC1(C)C2=CC(=N)C=CC2=Cc2ccc(N)cc21` [Compound 28], the “k (nucleophilic addition reaction rate constant)” value in series [1] (glutathione 0.1 mM) was determined as 21.1 s⁻¹; in series [1] (glutathione 0.5 mM), 195 s⁻¹; in series [1] (glutathione 1 mM), 371 s⁻¹; in series [1] (glutathione 5 mM) it was 2170 s⁻¹; in series [1] (glutathione 10 mM) it was 5260 s⁻¹. The “τ (nucleophilic addition reaction time constant)” value in series [1] (glutathione 0.1 mM) stood at 47.5 ms; in series [1] (glutathione 0.5 mM), 5.12 ms; in series [1] (glutathione 1 mM), 2.69 ms; in series [1] (glutathione 5 mM), 0.46 ms; in series [1] (glutathione 10 mM), 0.19 ms. Moreover, in series [2], the Fluorescence quantum yield was determined as 0.70.
As to `CC1(C)C2=C/C(=N/CCCC(=O)O)C=CC2=Cc2ccc(N)cc21` [Compound 32], the “k (nucleophilic addition reaction rate constant)” value is 15.8 s⁻¹ in series [1] (glutathione 0.1 mM); 61.7 s⁻¹ in series [1] (glutathione 0.5 mM); 106 s⁻¹ in series [1] (glutathione 1 mM); 592 s⁻¹ in series [1] (glutathione 5 mM); 1410 s⁻¹ in series [1] (glutathione 10 mM). Also, the “τ (nucleophilic addition reaction time constant)” value is given as 63.1 ms in series [1] (glutathione 0.1 mM); 16.2 ms in series [1] (glutathione 0.5 mM); 9.45 ms in series [1] (glutathione 1 mM); 1.69 ms in series [1] (glutathione 5 mM); 0.71 ms in series [1] (glutathione 10 mM). For the same compound, in series [2], the Fluorescence quantum yield was 0.69.
